Assay results: patent publication US20140121100A1, “COMPOSITIONS AND METHODS FOR ENHANCING PLANT GROWTH” (NOVOZYMES BIOAG A/S, priority 2012, published 2014)
Like-named read-outs stand apart in the source and are kept apart here.

What was measured:
corn seedling growth [1] = test: Effect of GSH and LCO on corn seedling growth (greenhouse pots, WinRhizo); assay type: in vivo; settings: seed treatment (LCO 10^−8M), harvested after 2 weeks
Protocol: LCO stock solution was prepared by dissolving LCO in 50:50 ethanol/water solvent. Seeds were then treated according to the protocols of Example 1. Seeds were planted 1 day after treatment in greenhouse under artificial lighting in 5'' plastic pots containing 1:1 sand/perlite mix. […] Plants were allowed to grow for 2 weeks and then harvested. A non-destructive harvest was made by washing sand/perlite soil mix under running tap water. After cleaning, each plant was placed on a clear plexiglass-tray containing enough water to spread the roots in liquid. The tray was then placed on the WinRhizo root scanner (Regent Instruments Inc., WinRhizo Pro 2007) for measurement.

soybean = soybean roots; seed treatment; petriplates, dark, 24° C., 7 days
Protocol: (§1) Seeds of chickpea, cotton, pinto bean and soybean were treated according to the protocols of Example 1. One day after seed treatment, 10 seeds of each crop variety were plated in 150 mm×15 mm polystyrene petriplates (Fisherband) on 5⅜″ germination paper circle (Anchor Paper Co., Saint Paul, Mn) moistened with 12 ml distilled water. Four petriplates were prepared per treatment as 4 replicates. Petri plates were then placed in the dark in under-counter cabinets in the lab at 24° C. for 7 days. After 7 days, seedlings were removed from the cabinets, exposed to light, and their main roots severed and measured for various root parameters with WinRhizo root scanner (Regent Instruments Inc., WinRhizo Pro 2007). For all statistical analysis, student t-test was applied using JMPv.9 statistical software.

chickpea = chickpea roots; seed treatment; petriplates, dark, 24° C., 7 days
Protocol: as §1

corn = settings: GSH 100 mg/L seed treatment; petriplates, dark, 24° C., 7 days
Protocol: as §1, with “Instead” for “Seeds”, “growing the seeds in a greenhouse, the seeds” for “chickpea, cotton, pinto bean and soybean”, “grown” for “treated according to the protocols of Example 1. One day after seed treatment, 10 seeds of each crop variety were plated”, “[…]” for “150”

corn seedling growth [2] = settings: for Plant root dry weight / Plant shoot dry weight / Total plant dry weight / Chlorophyll content: 2 weeks after; for Chlorophyll content: SPAD chlorophyll meter; for Plant height: one wk after (8 days after planting)
Protocol: In a clear plastic bag (25 cm×25 cm), 100 gram seeds were treated with 1 ml of water (as control) and 1 mL of the 100, 200, and 500 mg/L treatment solutions separately and shaken vigorously. One day following treatment, seeds were planted in 6″ plastic pots containing sand:perlite 1:1 mix. There were 10 pots/treatment; each pot being a replicate. Plant height was measured 8 days after planting. Plant leaf greenness and final harvest were made 2 weeks after planting. Plant leaf greenness was measured using a SPAD chlorophyll meter (Spectrum Technology, USA).

For `N[C@@H](CCC(=O)N[C@@H](CS)C(=O)NCC(=O)O)C(=O)O` [GSH, glutathione], the “Coleoptile Length” value (corn seedling growth [1]) was 9.814b cm, the “Coleoptile Surface area” value (corn seedling growth [1]) was 1.789b cm^2 and the “Coleoptile Volume” value (corn seedling growth [1]) was 0.236b cm^2. The “Root Diameter” value (corn seedling growth [1]) was 0.653a mm, the “Root Length” value (corn seedling growth [1]) was 150.89a cm and the “Root Surface area” value (corn seedling growth [1]) was 30.47a cm^2. For the same molecule, the “Root Volume” value (corn seedling growth [1]) was 0.494a cm^2, the Length (soybean) was 146.373a cm and the Surface area (soybean) was 25.691a cm^2. For the same molecule, the Length (chickpea) was 94.671a cm, the Surface area (chickpea) was 23.142a cm^2 and the “Length, Total” value (corn) was 21.890a* cm. For the same molecule, the “Volume, Total” value (corn) was 0.150a* cm^3, the “Plant root dry weight” value (corn seedling growth [2]; GSH 100 mg/L seed treatment) was 0.244a mg and the “Plant shoot dry weight” value (corn seedling growth [2]; GSH 100 mg/L seed treatment) was 0.3111ab mg. For the same molecule, the “Total plant dry weight” value (corn seedling growth [2]; GSH 100 mg/L seed treatment) was 0.555a mg, the Chlorophyll content (corn seedling growth [2]; GSH 100 mg/L seed treatment) was 27.93a and the Plant height (corn seedling growth [2]; GSH 100 mg/L seed treatment) was 12.07a cm. For the same molecule, the “Plant root dry weight” value (corn seedling growth [2]; GSH 200 mg/L seed treatment) was 0.231ab mg, the “Plant shoot dry weight” value (corn seedling growth [2]; GSH 200 mg/L seed treatment) was 0.3116ab mg and the “Total plant dry weight” value (corn seedling growth [2]; GSH 200 mg/L seed treatment) was 0.542a mg. The Chlorophyll content (corn seedling growth [2]; GSH 200 mg/L seed treatment) was 27.55a, the Plant height (corn seedling growth [2]; GSH 200 mg/L seed treatment) was 11.91a cm and the “Plant root dry weight” value (corn seedling growth [2]; GSH 500 mg/L seed treatment) was 0.266b mg. The “Plant shoot dry weight” value (corn seedling growth [2]; GSH 500 mg/L seed treatment) was 0.339a mg, the “Total plant dry weight” value (corn seedling growth [2]; GSH 500 mg/L seed treatment) was 0.565a mg and the Chlorophyll content (corn seedling growth [2]; GSH 500 mg/L seed treatment) was 27.83a. For the same molecule, the Plant height (corn seedling growth [2]; GSH 500 mg/L seed treatment) was 11.66ab cm.
